From patent US20060004197A1, “Sulfonamide-based compounds as protein tyrosine kinase inhibitors” (priority 2004, published 2006) come the findings set out here.

A value given as a limit tells only on which side of the number the result lay.

Type in all cases: biochemical
For experiment [1], the target named is T1, Recombinant human Src (Homo sapiens, UniProt P12931).
T1 construct: made in house; host or cells: baculovirus-insect cell system
Kind of experiment: Src tyrosine kinase activity, poly E4Y / 32P-ATP phosphorylation assay.

Experiment [2] concerns the target FGF receptor (FGFr). Kind of experiment: FGFr tyrosine kinase activity, poly E4Y / 32P-ATP phosphorylation assay.
Experiment [3] concerns the target Recombinant Csk (Homo sapiens, UniProt P41240). Kind of experiment: Csk tyrosine kinase activity, poly E4Y / 32P-ATP phosphorylation assay.
[4] abbreviates: Table 3, Formula II compounds, NI = no inhibition at 100 μg/mL.
Setting [5] is: Table 4, Formula III compounds, NI = no inhibition at 100 μg/mL.
Setting [6] is: Table 2, Formula I compounds, NI = no inhibition at 100 μg/mL.
The mark [7] stands for this setting: poly E4Y / 32P-ATP, Formula IV compounds.

T1 sequence (P12931 whole entry): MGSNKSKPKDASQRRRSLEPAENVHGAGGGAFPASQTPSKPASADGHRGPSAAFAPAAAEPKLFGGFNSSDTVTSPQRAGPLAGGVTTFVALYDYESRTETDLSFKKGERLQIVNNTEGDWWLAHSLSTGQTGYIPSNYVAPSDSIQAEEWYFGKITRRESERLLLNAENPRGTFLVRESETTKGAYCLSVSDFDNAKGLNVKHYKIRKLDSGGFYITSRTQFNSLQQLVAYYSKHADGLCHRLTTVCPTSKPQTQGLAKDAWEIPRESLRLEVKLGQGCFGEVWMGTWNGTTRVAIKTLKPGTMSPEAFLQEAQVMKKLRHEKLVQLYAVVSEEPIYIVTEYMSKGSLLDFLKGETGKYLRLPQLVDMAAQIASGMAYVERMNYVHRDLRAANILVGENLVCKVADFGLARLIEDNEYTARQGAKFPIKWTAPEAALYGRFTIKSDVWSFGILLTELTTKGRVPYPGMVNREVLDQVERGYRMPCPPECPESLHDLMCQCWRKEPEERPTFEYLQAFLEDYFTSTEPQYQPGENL
Recombinant Csk, sequence (P41240 whole entry, species assumed): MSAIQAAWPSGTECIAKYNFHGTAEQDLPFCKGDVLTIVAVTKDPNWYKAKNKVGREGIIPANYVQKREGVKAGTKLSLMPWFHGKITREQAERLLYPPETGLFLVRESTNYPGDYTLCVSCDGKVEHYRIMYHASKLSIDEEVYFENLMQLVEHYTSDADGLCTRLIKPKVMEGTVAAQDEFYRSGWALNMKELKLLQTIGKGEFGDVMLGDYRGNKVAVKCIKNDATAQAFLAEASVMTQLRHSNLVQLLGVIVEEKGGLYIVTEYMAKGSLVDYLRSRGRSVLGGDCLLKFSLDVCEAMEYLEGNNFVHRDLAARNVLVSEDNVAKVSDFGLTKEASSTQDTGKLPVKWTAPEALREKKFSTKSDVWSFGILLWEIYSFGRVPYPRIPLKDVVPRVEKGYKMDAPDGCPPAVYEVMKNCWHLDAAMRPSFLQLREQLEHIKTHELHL

Regarding `COc1ccc(Oc2ccc(NS(=O)(=O)c3ccc(Oc4ccccc4)cc3)c(NS(=O)(=O)c3ccc(Oc4ccccc4)cc3)c2)cc1` [Compound 12e, N-[4-(4-methoxy-phenoxy)-2-(4-phenoxy-benzenesulfonylamino)-phenyl]-4-phenoxy-benzenesulfonamide], the IC50 (in general, the point on the concentration scale where inhibition reaches its midpoint) was 19 µM in experiment [1] (setting [4]), 46 µM in experiment [2] (setting [4]) and over 144 µM in experiment [3] (setting [4]).

Regarding `Cc1ccc(S(=O)(=O)Nc2cc(N)c(Sc3ccc(Cl)cc3)cc2NS(=O)(=O)c2ccc(C)cc2)cc1` [Compound 23, N-[5-amino-4-(4-chloro-phenylsulfanyl)-2-(4-toluenesulfonylamino)-phenyl]-4-toluenesulfonamide], the half-inhibitory concentration (IC50) is 58 µM in experiment [1] (setting [5]), 56 µM in experiment [2] (setting [5]) and 280 µM in experiment [3] (setting [5]).

On to `Cc1ccc(S(=O)(=O)Nc2cc(Sc3ccc(F)cc3)c([N+](=O)[O-])cc2NS(=O)(=O)c2ccc(C)cc2)cc1` [Compound 4h, N-[4-(4-fluoro-phenylsulfanyl)-5-nitro-2-(4-toluenesulfonylamino)-phenyl]-4-toluenesulfonamide], for which the results for the IC50 in experiment [1] (setting [6]), in experiment [2] (setting [6]) and in experiment [3] (setting [6]) were 1.8 µM, 7.8 µM and 8.6 µM, respectively.

Turning to `Cc1ccc(S(=O)(=O)Nc2ccc(OCc3cccc(Cl)c3)cc2NS(=O)(=O)c2ccc(C)cc2)cc1` [Compound 15c, N-[4-(3-chloro-benzyloxy)-2-(4-toluenesulfonylamino)-phenyl]-4-toluenesulfonamide], the figures for the IC50 in experiment [1] (setting [4]), in experiment [2] (setting [4]) and in experiment [3] (setting [4]) were 27 µM, 54 µM and over 180 µM, respectively.

Consider `Cc1ccc(S(=O)(=O)Nc2cc(Sc3ccccc3Cl)c([N+](=O)[O-])cc2NS(=O)(=O)c2ccc(C)cc2)cc1` [Compound 4f, N-[4-(2-chloro-phenylsulfanyl)-5-nitro-2-(4-toluenesulfonylamino)-phenyl]-4-toluenesulfonamide], for which the IC50 was 2.5 µM in experiment [1] (setting [6]), 10.8 µM in experiment [2] (setting [6]) and 10.8 µM in experiment [3] (setting [6]).

For `COc1ccc(Oc2ccc(NS(=O)(=O)c3ccc(C(C)C)cc3)c(NS(=O)(=O)c3ccc(C(C)C)cc3)c2)cc1` [Compound 12b, 4-isopropyl-N-[2-(4-isopropyl-benzenesulfonylamino)-4-(4-methoxy-phenoxy)-phenyl]-benzenesulfonamide], the figures for the IC50 in experiment [1] (setting [4]), in experiment [2] (setting [4]) and in experiment [3] (setting [4]) were 18.5 µM, 45 µM and over 168 µM, respectively.

For `COc1ccc(Oc2ccc(NS(=O)(=O)c3cccc4ccccc34)c(NS(=O)(=O)c3cccc4ccccc34)c2)cc1` [Compound 12h, naphthalene-1-sulfonic acid [4-(4-methoxy-phenoxy)-2-(naphthalen-1-yl-sulfonylamino)-phenyl]-amide], the values for the IC50 in experiment [1] (setting [4]), in experiment [2] (setting [4]) and in experiment [3] (setting [4]) were 9 µM, 36 µM and 98 µM, respectively.

With `CCCCS(=O)(=O)Nc1ccc(Oc2ccc(OC)cc2)cc1NS(=O)(=O)CCCC` [Compound 12l, butane-1-sulfonic acid [2-(butane-1-sulfonylamino)-4-(4-methoxy-phenoxy)-phenyl]-amide], the IC50 was 40 µM in experiment [1] (setting [4]), 81 µM in experiment [2] (setting [4]) and over 212 µM in experiment [3] (setting [4]).

Consider `CS(=O)(=O)Nc1cc(Sc2ccc(Cl)cc2)c([N+](=O)[O-])cc1NS(C)(=O)=O` [Compound 4u, N-[5-(4-chloro-phenylsulfanyl)-2-methanesulfonylamino-4-nitro-phenyl]-methanesulfonamide], for which the IC50 in experiment [1] (setting [6]) was determined as 590 µM; in experiment [2] (setting [6]), 188 µM; in experiment [3] (setting [6]), 333 µM.

In the case of `COc1ccc(Oc2ccc(NS(=O)(=O)c3ccc(C)cc3)c(OCCO)c2)cc1` [Compound 62, N-[2-(2-hydroxy-ethoxy)-4-(4-methoxy-phenoxy)-phenyl]-4-toluenesulfonamide], the results for the IC50 in experiment [1] (setting [7]) and in experiment [3] (setting [7]) were 126 µM and 15 µM, respectively. In addition, the “IC50 (μM) FGFr” value in experiment [2] (setting [7]) is on record as “NI (NI = no inhibition at 100 μg/mL)”.

As to `Cc1ccc(S(=O)(=O)Nc2ccc(Sc3ccc(Cl)cc3)c([N+](=O)[O-])c2)cc1` [Compound 69, N-[4-(4-chloro-phenylsulfanyl)-3-nitro-phenyl]-4-toluenesulfonamide], the values for the IC50 in experiment [1] (setting [7]) and in experiment [3] (setting [7]) were 1970 µM and 986 µM, respectively. For the same compound, the “IC50 (μM) FGFr” value in experiment [2] (setting [7]) was “NI (NI = no inhibition at 100 μg/mL)”.

With `Cc1ccc(S(=O)(=O)Nc2ccc(N3CCN(S(=O)(=O)c4ccc(C)cc4)CC3)cc2NS(=O)(=O)c2ccc(C)cc2)cc1` [Compound 17e, N-{2-(4-toluenesulfonylamino)-4-[4-(toluene-4-sulfonyl)-piperazin-1-yl]-phenyl}-4-toluenesulfonamide], the IC50 was 19 µM in experiment [1] (setting [4]), 21 µM in experiment [2] (setting [4]) and over 153 µM in experiment [3] (setting [4]).

Regarding `COc1ccc(Oc2ccc(NS(=O)(=O)c3ccc4ccccc4c3)c(NS(=O)(=O)c3ccc4ccccc4c3)c2)cc1` [Compound 12i, naphthalene-2-sulfonic acid [4-(4-methoxy-phenoxy)-2-(naphthalen-2-yl-sulfonylamino)-phenyl]-amide], the IC50 in experiment [1] (setting [4]) is 8 µM; in experiment [2] (setting [4]), 48 µM; in experiment [3] (setting [4]), over 164 µM.

As for `COc1ccc(Oc2ccc(NS(=O)(=O)c3ccc(Cl)cc3)c(NS(=O)(=O)c3ccc(Cl)cc3)c2)cc1` [Compound 12c, 4-chloro-N-[2-(4-chloro-benzenesulfonylamino)-4-(4-methoxy-phenoxy)-phenyl]-benzenesulfonamide], the values for the IC50 in experiment [1] (setting [4]), in experiment [2] (setting [4]) and in experiment [3] (setting [4]) were 8.6 µM, 19 µM and 95 µM, respectively.

For `COc1ccccc1Sc1cc(NS(=O)(=O)c2ccc(C)cc2)c(NS(=O)(=O)c2ccc(C)cc2)cc1[N+](=O)[O-]` [Compound 4b, N-[4-(2-methoxy-phenylsulfanyl)-5-nitro-2-(4-toluenesulfonylamino)-phenyl]-4-toluenesulfonamide], the concentration for half-maximal inhibition (IC50) in experiment [1] (setting [6]) is 7 µM; in experiment [2] (setting [6]), 20 µM; in experiment [3] (setting [6]), 15 µM.

Take `COc1ccc(Oc2ccc(NS(=O)(=O)c3ccc(C(C)(C)C)cc3)c(NS(=O)(=O)c3ccc(C(C)(C)C)cc3)c2)cc1` [Compound 12o, N-[2-(4-t-butyl-benzenesulfonylamino)-4-(4-methoxy-phenoxy)-phenyl]-4-t-butyl-benzenesulfonamide]: the IC50 in experiment [1] (setting [4]) was 7.2 µM; in experiment [2] (setting [4]) it was 22 µM; in experiment [3] (setting [4]), over 161 µM.

For the compound `COc1ccc(Oc2ccc(NS(=O)(=O)Cc3ccccc3)c(NS(=O)(=O)Cc3ccccc3)c2)cc1` [Compound 12g, N-[4-(4-methoxy-phenoxy)-2-phenylmethanesulfonylamino-phenyl]-C-phenyl-methanesulfonamide], the IC50 stood at 35 µM in experiment [1] (setting [4]), 70 µM in experiment [2] (setting [4]) and 102 µM in experiment [3] (setting [4]).

Turning to `COc1ccc(NS(=O)(=O)c2ccc(C)cc2)c(NS(=O)(=O)c2ccc(C)cc2)c1` [Compound 12v, N-[4-methoxy-2-(4-toluenesulfonylamino)-phenyl]-4-toluenesulfonamide], the IC50 in experiment [1] (setting [4]) was 69 µM; in experiment [2] (setting [4]) it was 145 µM; in experiment [3] (setting [4]), over 224 µM.

Regarding `Cc1ccc(S(=O)(=O)Nc2ccc(Oc3cccc(CC(=O)O)c3)cc2NS(=O)(=O)c2ccc(C)cc2)cc1` [Compound 12y, {3-[3,4-bis(4-toluenesulfonylamino)-phenoxy]-phenyl}-acetic acid], the concentration for half-maximal inhibition (IC50) in experiment [1] (setting [4]) came to 11 µM; in experiment [2] (setting [4]), 26 µM; in experiment [3] (setting [4]), 104 µM.

For `COc1cccc(NS(=O)(=O)c2ccc(C)cc2)c1NS(=O)(=O)c1ccc(C)cc1` [Compound 22a, N-[3-methoxy-2-(4-toluenesulfonylamino)-phenyl]-4-toluenesulfonamide], the IC50 in experiment [1] (setting [4]) and in experiment [3] (setting [4]) was over 224 µM throughout. For the same compound, the “IC50 (μM) FGFr” value in experiment [2] (setting [4]) is “NI (NI = no inhibition at 100 μg/mL)”.

For `Cc1ccc(S(=O)(=O)Nc2cc([N+](=O)[O-])c(Sc3ccc(Cl)cc3)cc2N)cc1` [Compound 55, N-[2-amino-4-(4-chloro-phenylsulfanyl)-5-nitro-phenyl]-4-toluenesulfonamide], the IC50 was 33 µM in experiment [1] (setting [7]), 2.2 µM in experiment [2] (setting [7]) and over 222 µM in experiment [3] (setting [7]).

Consider `Cc1ccc(S(=O)(=O)Nc2ccc(Oc3ccc4ccccc4c3)cc2NS(=O)(=O)c2ccc(C)cc2)cc1` [Compound 12u, N-[4-(naphthalene-2-yloxy)-2-(4-toluenesulfonylamino)-phenyl]-4-toluenesulfonamide], for which the IC50 in experiment [1] (setting [4]) was 12 µM; in experiment [2] (setting [4]), 38 µM; in experiment [3] (setting [4]) it was 104 µM.

As to `COc1ccc(COc2ccc(NS(=O)(=O)c3ccc(C)cc3)c(NS(=O)(=O)c3ccc(C)cc3)c2)cc1` [Compound 15e, N-[4-(4-methoxy-benzyloxy)-2-(4-toluenesulfonylamino)-phenyl]-4-toluenesulfonamide], the half-inhibitory concentration (IC50) in experiment [1] (setting [4]) was 15 µM; in experiment [2] (setting [4]) it was 132 µM; in experiment [3] (setting [4]), over 181 µM.

On to `Cc1ccc(S(=O)(=O)Nc2cc(Sc3ccccc3C(C)C)c([N+](=O)[O-])cc2NS(=O)(=O)c2ccc(C)cc2)cc1` [Compound 4n, N-[4-(2-isopropyl-phenylsulfanyl)-5-nitro-2-(4-toluenesulfonylamino)-phenyl]-4-toluenesulfonamide], for which the results for the IC50 in experiment [1] (setting [6]), in experiment [2] (setting [6]) and in experiment [3] (setting [6]) were 1.3 µM, 4.3 µM and 5.7 µM, respectively.

Consider `CCCCSc1ccc(NS(=O)(=O)c2ccc(C)cc2)c(NS(=O)(=O)c2ccc(C)cc2)c1` [Compound 12hh, N-[4-butylsulfanyl-2-(4-toluenesulfonylamino)-phenyl]-4-toluenesulfonamide], for which the IC50 in experiment [1] (setting [4]) is 18 µM; in experiment [2] (setting [4]) it was 30 µM; in experiment [3] (setting [4]) it was over 198 µM.

On to `COc1ccc(Oc2ccc(N(C)S(=O)(=O)c3ccc(C)cc3)c(OC)c2)cc1` [Compound 61, N-[2-methoxy-4-(4-methoxy-phenoxy)-phenyl]-N-methyl-4-toluenesulfonamide], for which the figures for the IC50 in experiment [1] (setting [7]) and in experiment [3] (setting [7]) were 177 µM and over 242 µM, respectively. The “IC50 (μM) FGFr” value in experiment [2] (setting [7]) is “NI (NI = no inhibition at 100 μg/mL)”.
